Laboratory results: US7501413B2, “Dicarboxamide derivatives” (Hoffmann-La Roche Inc., priority 2004, dated 2009)

The compounds below were run against T1, human factor Xa (Homo sapiens, UniProt P00742) (assay: Factor Xa chromogenic peptide substrate assay (S-2222)). Details: human factor Xa 3 nM, chromogenic substrate S-2222 at 200 nM, HNPT buffer pH 7.8, room temperature; apparent Ki calculated from IC50 (Cheng-Prusoff), Km 613 μM.
T1 construct: purchased Enzyme Research Laboratories
Type: biochemical
Method: Factor Xa activity was measured spectrophotometrically in microtiter plates in a final volume of 150 μl using the following conditions: Inhibition of human factor Xa (Enzyme Research Laboratories) was tested at an enzyme concentration of 3 nM using the chromogenic substrate S-2222 (Chromogenix AB, Mölndal, Sweden) at […]. The reaction kinetics of the enzyme and the substrate were linear with both time and the enzyme concentration. The inhibitors were dissolved in DMSO and tested at various concentrations up to 100 μM. The inhibitors were diluted using HNPT buffer consisting of HEPES 100 mM, NaCl 140 mM, PEG 6000 0.1% and Tween 80 0.02%, pH 7.8. The cleavage of S-2222 by human factor Xa was followed at 405 nm for 5 minutes at room temperature. The velocity of the reaction was determined by the autoreader from the slope of the linear regression fit to 7 time points (1 minute). The initial velocity for each inhibitor concentration was determined by the slope of at least 4 time points in the linear phase by a linear regression fit (mOD/min^2). Apparent dissociation constants Ki were calculated according to Cheng and Prusoff [Cheng, Y. C.; Prusoff, W. H. Relationship between the inhibition constant (Ks) and the concentration of the inhibitor that causes 50 percent inhibition (IC50) of an enzyme reaction. Biochem. Pharmacol. 1973, 22, 3099-3108.] based on the IC50 and the respective Km, determined previously (Ki=IC50/(1+S/Km)). The Km for the substrate used was determined under the conditions of the test with at least 5 substrate concentrations ranging from 0.5 to 15 times Km. [Lottenberg R, Hall J A, Blinder M, Binder E P, Jackson C M., The action of thrombin on peptide p-nitroanilide substrates. Substrate selectivity and examination of hydrolysis under different reaction conditions. Biochim Biophys Acta. 1983 Feb. 15; 742(3):539-57]. according to Eadie [Eadie G. S. The inhibition of cholinesterase by physostigmine and prostigmine. J. Biol. Chem. 1942, 146, 85-93.]. The Km for S-2222 amounted to 613 μM.

T1 sequence (P00742 235-488 limits assumed): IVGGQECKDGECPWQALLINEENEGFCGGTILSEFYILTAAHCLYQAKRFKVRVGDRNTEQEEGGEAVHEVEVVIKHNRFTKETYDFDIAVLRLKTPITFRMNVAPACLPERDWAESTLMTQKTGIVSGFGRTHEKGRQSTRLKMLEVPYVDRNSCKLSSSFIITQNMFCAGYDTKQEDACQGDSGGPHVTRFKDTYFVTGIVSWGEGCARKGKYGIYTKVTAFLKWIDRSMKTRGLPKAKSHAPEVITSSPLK
T1 sequence (P00742 41-179 partner limits assumed): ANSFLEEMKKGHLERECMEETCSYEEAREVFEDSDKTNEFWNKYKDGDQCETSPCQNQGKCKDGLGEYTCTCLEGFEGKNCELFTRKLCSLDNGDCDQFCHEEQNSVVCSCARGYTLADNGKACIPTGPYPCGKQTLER

| SMILES | Ki [µM] |
| --- | --- |
| COC1(CO)C[C@H](C(=O)Nc2ccc(Cl)cc2)[C@@H](C(=O)Nc2ccc(-n3ccccc3=O)cc2F)C1 (single isomer, unassigned) [Example 47, (1S,2S,4S)- or (1S,2S,4R)-4-Hydroxymethyl-4-methoxy-cyclopentane-1,2-dicarboxylic acid 1-[(4-chloro-phenyl)-amide]2-{[2-fluoro-4-(2-oxo-2H-pyridin-1-yl)-phenyl]-amide}] | 0.009 |
| O=C(Nc1ccc(Cl)cc1)[C@H]1CC2(CC2)C[C@@H]1C(=O)Nc1ccc(-n2ccccc2=O)cc1F [Example 48, (5S,6S)-Spiro[2.4]heptane-5,6-dicarboxylic acid (4-chloro-phenyl)-amide [2-fluoro-4-(2-oxo-2H-pyridin-1-yl)-phenyl]-amide] | 0.008 |
| O=C(Nc1ccc(Cl)cc1)[C@H]1C[C@@H](O)C[C@H]1C(=O)Nc1ccc(-n2ccccc2=O)cc1F [Example 52, (1S,2S,4S)-4-Hydroxy-cyclopentane-1,2-dicarboxylic acid 1-[(4-chloro-phenyl)-amide]2-{[2-fluoro-4-(2-oxo-2H-pyridin-1-yl)-phenyl]-amide}] | 0.013 |
